Patent US8536354B2, “Steroidal ligands and their use in gene switch modulation” (Intrexon Corporation, priority 2008, dated 2013)
In brackets after ≈: the same amount, converted by molar mass. Several values for one entry are separate records, joined by “and”; a condition that tells them apart may be missing. Equal entries are not always repeated. Where two headings read alike, the source gives them in different places.

Tests used:
[1] = target: T1, wild-type Aedes aegypti EcR (AaEcR-DEF) (Aedes aegypti, UniProt P49880); experiment: Two-hybrid gene switch assay, AaEcR-DEF in NIH3T3 cells
T1 sequence (P49880 405-776 limits assumed): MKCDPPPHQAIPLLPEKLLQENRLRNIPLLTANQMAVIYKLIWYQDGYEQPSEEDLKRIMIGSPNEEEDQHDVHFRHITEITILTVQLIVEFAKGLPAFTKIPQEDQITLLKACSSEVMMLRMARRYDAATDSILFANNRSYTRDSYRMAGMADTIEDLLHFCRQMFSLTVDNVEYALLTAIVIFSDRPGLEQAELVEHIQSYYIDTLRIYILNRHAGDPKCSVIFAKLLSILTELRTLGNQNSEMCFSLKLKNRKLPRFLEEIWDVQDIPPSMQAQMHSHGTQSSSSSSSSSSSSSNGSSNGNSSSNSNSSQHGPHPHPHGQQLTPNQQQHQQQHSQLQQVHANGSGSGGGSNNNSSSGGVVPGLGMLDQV

[2] = target: T2, wild-type Choristoneura fumiferana EcR (CfEcR-DEF) (Choristoneura fumiferana, UniProt O77255); experiment: Two-hybrid gene switch assay, wild-type CfEcR-DEF (GAL4-EcR / VP16-RXR-USP chimera, luciferase) in NIH3T3 cells
T2 sequence (O77255 219-541): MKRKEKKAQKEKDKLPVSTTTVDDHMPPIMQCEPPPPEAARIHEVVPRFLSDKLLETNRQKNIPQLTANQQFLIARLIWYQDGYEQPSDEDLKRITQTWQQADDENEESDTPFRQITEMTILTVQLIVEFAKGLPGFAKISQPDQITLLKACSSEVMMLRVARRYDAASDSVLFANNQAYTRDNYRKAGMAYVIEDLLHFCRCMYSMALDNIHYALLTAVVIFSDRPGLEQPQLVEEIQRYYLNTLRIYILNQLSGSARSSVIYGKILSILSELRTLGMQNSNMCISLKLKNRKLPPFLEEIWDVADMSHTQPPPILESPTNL
T2 sequence (P28702 299-449 partner): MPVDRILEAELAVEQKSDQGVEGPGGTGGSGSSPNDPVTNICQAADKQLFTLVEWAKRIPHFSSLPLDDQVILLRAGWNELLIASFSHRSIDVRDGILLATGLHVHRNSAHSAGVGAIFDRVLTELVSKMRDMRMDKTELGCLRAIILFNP

[3] = target: T3, wild-type Drosophila melanogaster EcR (DmEcR-DEF) (Drosophila melanogaster, UniProt P34021); experiment: Two-hybrid gene switch assay, DmEcR-DEF in NIH3T3 cells
T3 sequence (P34021 342-878 limits assumed): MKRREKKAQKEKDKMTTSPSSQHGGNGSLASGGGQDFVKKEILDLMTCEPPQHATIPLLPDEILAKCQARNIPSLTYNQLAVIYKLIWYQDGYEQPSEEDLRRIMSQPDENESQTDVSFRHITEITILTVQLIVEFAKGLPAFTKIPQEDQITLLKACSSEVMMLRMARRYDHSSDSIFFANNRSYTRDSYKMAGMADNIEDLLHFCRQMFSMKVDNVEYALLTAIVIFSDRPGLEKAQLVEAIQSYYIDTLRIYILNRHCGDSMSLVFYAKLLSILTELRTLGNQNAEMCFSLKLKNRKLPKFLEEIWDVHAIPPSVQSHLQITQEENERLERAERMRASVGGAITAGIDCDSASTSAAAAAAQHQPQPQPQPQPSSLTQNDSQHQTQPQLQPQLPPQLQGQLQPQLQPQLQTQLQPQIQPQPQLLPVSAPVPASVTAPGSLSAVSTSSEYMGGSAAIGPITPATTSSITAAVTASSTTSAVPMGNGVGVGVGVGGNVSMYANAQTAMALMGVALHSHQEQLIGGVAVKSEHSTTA

[4] = target: T4, Manduca sexta EcR (MsEcR) (Manduca sexta, UniProt P49883); experiment: Two-hybrid gene switch assay, MsEcR-CDEF in NIH3T3 cells; conditions: MsEcR; alternative 3T3 fibroblast cell stock
T4 sequence (P49883 293-531 limits assumed): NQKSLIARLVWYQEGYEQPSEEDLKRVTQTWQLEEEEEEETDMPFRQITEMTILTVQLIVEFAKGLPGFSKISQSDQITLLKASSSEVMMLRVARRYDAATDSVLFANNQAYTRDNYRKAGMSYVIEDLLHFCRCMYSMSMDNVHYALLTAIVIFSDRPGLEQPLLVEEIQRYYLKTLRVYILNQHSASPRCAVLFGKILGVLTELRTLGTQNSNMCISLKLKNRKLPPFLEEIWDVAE

[5] = tested on: D. melanogaster BII cell line (expresses the ecdysteroid receptor complex EcR-USP); experiment: Drosophila melanogaster BII cell line bioassay (turbidometric; agonist and antagonist versions)
VgEcR/RXR = VgEcR/RXR (Drosophila melanogaster, UniProt P34021, E282G/G283S/G286V)
VgEcR/RXR, sequence (P34021 whole entry E282G/G283S/G286V): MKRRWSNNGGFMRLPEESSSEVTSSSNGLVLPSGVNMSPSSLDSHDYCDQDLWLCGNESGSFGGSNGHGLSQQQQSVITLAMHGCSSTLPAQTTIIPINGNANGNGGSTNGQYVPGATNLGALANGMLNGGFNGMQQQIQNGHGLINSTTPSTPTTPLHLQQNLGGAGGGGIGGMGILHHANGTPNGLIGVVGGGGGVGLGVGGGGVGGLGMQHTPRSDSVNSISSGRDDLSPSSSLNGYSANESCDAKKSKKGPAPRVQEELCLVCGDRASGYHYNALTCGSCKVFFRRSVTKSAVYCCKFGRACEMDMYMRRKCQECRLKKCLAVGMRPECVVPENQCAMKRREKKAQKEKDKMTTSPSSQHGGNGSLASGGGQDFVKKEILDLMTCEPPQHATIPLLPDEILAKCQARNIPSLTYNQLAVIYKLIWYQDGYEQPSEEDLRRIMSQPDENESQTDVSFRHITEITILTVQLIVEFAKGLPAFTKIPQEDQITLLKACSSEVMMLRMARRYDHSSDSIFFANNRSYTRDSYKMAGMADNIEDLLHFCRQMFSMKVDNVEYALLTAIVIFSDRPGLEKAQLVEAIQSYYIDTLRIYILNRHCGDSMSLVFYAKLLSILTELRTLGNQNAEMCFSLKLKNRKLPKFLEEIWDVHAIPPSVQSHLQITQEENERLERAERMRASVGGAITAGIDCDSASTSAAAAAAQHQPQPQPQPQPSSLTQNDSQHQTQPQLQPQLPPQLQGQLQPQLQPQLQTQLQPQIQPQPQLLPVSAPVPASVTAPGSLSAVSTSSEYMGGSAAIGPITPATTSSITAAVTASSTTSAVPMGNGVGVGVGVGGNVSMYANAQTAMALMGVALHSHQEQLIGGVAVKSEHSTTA
VgEcR/RXR, sequence (P19793 whole entry, further chain): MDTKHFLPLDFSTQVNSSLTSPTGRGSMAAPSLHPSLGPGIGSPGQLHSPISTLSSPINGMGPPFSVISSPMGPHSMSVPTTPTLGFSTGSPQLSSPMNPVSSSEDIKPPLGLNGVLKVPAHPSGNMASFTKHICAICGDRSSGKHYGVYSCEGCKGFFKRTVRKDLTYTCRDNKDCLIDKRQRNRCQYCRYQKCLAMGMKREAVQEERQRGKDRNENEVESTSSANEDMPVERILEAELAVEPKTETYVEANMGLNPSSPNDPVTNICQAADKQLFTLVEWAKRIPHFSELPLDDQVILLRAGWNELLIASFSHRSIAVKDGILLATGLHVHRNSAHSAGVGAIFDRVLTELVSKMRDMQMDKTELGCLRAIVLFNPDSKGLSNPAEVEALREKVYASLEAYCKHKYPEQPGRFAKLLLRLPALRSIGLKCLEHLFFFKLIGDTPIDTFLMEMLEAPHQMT

Bombyx mori EcR (BmEcR) = target: T5, Bombyx mori EcR (BmEcR) (Bombyx mori, UniProt P49881); experiment: Two-hybrid gene switch assay, BmEcR in NIH3T3 cells; conditions: BmEcR, Example Two; background FI=3
T5 sequence (P49881 352-589 limits assumed): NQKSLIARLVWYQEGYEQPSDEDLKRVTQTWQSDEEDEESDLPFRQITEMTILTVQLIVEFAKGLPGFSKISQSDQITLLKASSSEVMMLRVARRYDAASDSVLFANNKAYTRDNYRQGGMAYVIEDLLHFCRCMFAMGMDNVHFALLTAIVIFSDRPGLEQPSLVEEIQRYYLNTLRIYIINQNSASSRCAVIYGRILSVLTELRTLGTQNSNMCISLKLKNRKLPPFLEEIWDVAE

[6] = Log D measurement (shake flask, pH 7.4 buffer / octanol); format: physicochemical; conditions: octanol/pH 7.4 buffer (shake flask), pH 7.4 buffer / water-saturated octanol, read-out: Experimental logD
Procedure: (§1) Each shake flask was agitated for 60 minutes at room temperature, then allowed to stand for 1 hour at room temperature. […] Absorbance was compared to that of a reference standard at the same absorbance maximum for a 1-2% solution of the same steroid in CH3OH, allowing for up to 10 nM maxima shift due to solvent effect.

[7] = Water solubility measurement (saturated solutions, 25° C., UV absorbance)
Procedure: as §1

[8] = target: Bemisia argentifolii EcR (BaEcR-DEF) (Bemisia argentifolii (Bemisia tabaci biotype B / MEAM1), UniProt A0A6M3RDR8); experiment: Two-hybrid gene switch assay, BaEcR-DEF in NIH3T3 cells
Bemisia argentifolii EcR (BaEcR-DEF), sequence (P28702 298-449): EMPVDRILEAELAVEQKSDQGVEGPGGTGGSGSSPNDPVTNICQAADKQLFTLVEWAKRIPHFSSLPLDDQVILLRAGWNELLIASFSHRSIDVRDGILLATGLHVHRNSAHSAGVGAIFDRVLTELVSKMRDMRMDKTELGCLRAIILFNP
Bemisia argentifolii EcR (BaEcR-DEF), sequence (A0A6M3RDR8 entry or part of it): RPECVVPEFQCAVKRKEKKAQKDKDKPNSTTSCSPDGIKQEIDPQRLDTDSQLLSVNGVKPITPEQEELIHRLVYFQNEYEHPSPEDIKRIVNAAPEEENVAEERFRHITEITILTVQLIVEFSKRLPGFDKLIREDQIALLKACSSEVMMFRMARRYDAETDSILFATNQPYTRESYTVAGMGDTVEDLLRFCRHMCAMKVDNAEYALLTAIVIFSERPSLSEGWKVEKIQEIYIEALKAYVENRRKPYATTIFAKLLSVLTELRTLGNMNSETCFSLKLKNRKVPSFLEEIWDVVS

[9] = tested on: EcRs (lepidopteran and non-lepidopteran); experiment: Two-hybrid gene switch assays, statements across the set of ten EcRs in NIH3T3 cells; conditions: for activity across the tested set of EcRs: FIGS. 13 and 14
[10] = read-out: EC50 (M), BII bioassay results, D. melanogaster BII cell line, turbidometric
[11] = Drosophila melanogaster, read-out: EC50 (M), BII bioassay results
[12] = wt-CfEcR gene switch, NIH3T3, Example One

SMILES: CO[C@H](CCC(C)C)[C@](C)(O)[C@H]1CC[C@@]2(O)C3=CC(=O)[C@@H]4C[C@@H](O)[C@@H](O)C[C@]4(C)[C@H]3CC[C@]12C [PoA-22-methyl ether]
- rel max FI (diacylhydrazine), AA ([1]; AaEcR, relative to 3,5-dimethyl-benzoic acid N-tert-butyl-N′-(2-ethyl-3-methoxy-benzoyl)-hydrazide): ~0.8
- EC50 ([1]; EC50 (μM), AA, AaEcR, NIH3T3 cells, luciferase, 48 h, ligand 0.01-33 μM): < 0.01 µM
- EC50 [2]: ~2000 nM
- Emax ([2]; NIH3T3, 48 h, read-out: rel max FI (diacylhydrazine), CF): 30 to 65%
- rel max FI (diacylhydrazine), DM ([3]; DmEcR, relative to 3,5-dimethyl-benzoic acid N-tert-butyl-N′-(2-ethyl-3-methoxy-benzoyl)-hydrazide): ~0.9
- EC50 ([3]; EC50 (μM), DM, DmEcR, NIH3T3 cells, luciferase, 48 h, ligand 0.01-33 μM): ~0.03 µM

SMILES: CO[C@@H]1C[C@H]2C(=O)C=C3[C@H](CC[C@]4(C)[C@@H]([C@@](C)(O)[C@H](O)CCC(C)(C)O)CC[C@@]34O)[C@@]2(C)C[C@@H]1O [compound 2, 20-hydroxyecdysone, 3-methyl ether]
- potency of ether relative to parent [4]: lose potency
- EC50 [5, 10]: 6e-07 M

SMILES: CO[C@H](CCC(C)(C)O)[C@](C)(O)C1CC[C@@]2(O)C3=CC(=O)C4C[C@@H](O)[C@@H](O)CC4(C)C3CCC12C (stereo partly drawn) [compound 4, 20-hydroxyecdysone-22-methyl ether]
- potency of ether relative to parent [4]: lose potency
- BII potency relative to 20E [5]: maintains 20E potency
- EC50 [5, 11]: 6.3e-09 M
- EC50 ([5]; Drosophila melanogaster, read-out: −log EC50 (converted)): 6.31e-09 M

SMILES: CCO[C@H](CCC(C)(C)O)[C@](C)(O)C1CC[C@@]2(O)C3=CC(=O)C4C[C@@H](O)[C@@H](O)CC4(C)C3CCC12C (stereo partly drawn) [compound 5, 20-hydroxyecdysone-22-ethyl ether]
- BII potency relative to 20E [5]: slightly less potent than methyl
- EC50 [5, 11]: 2.2e-08 M
- EC50 [2]: 4850 nM
- activation at 5 µM ([2]; NIH3T3, 48 h, read-out: reporter gene induction, % of maximum fold induction): 77%
- RMFI (relative maximum fold induction, relative to diacylhydrazine 30) [2, 12]: 0.77

SMILES: COC1C[C@H]2C(=O)C=C3[C@H](CC[C@]4(C)[C@@H]([C@@](C)(O)C(CCC(C)(C)O)OC)CC[C@@]34O)[C@@]2(C)CC1O (stereo partly drawn) [compound 12, 20-hydroxyecdysone, 3,22-dimethyl ether]
- potency of ether relative to parent [4]: lose potency
- EC50 [5, 10]: 2.2e-07 M

SMILES: CO[C@H](CCC(C)C)[C@](C)(O)[C@H]1CC[C@@]2(O)C3=CC(=O)[C@@H]4C[C@@H](O)[C@@H](O)C[C@]4(C)[C@H]3CC[C@]12C [compound 18, ponasterone A, 22-methyl ether]
- EC50 (VgEcR/RXR; EC50, VgEcR/RXR switch in 3T3 cells): 553 nM
- EC50 (VgEcR/RXR; EC50, VgEcR/RXR system): 533 nM
- RMFI (VgEcR/RXR; VgEcR/RXR system): 1.5
- EC50 ([1]; EC50, AaEcR gene switch, NIH3T3, Example One): 0.00038 µM
- EC50 [5, 11]: 2.2e-08 M
- RMFI (relative maximum fold induction, relative to diacylhydrazine 30) [2, 12]: ~0.6
- EC50 ([3]; EC50, DmEcR gene switch, NIH3T3, Example One): 0.066 µM and ~0.066 µM

SMILES: CO[C@H](CCC(C)C)[C@](C)(O)[C@H]1CC[C@@]2(OC)C3=CC(=O)[C@@H]4C[C@@H](O)[C@@H](O)C[C@]4(C)[C@H]3CC[C@]12C [compound 21, ponasterone A, 14,22-dimethyl ether]
- EC50 [5, 10]: 1.7e-07 M

SMILES: CO[C@H](CCC(C)C)[C@](C)(O)C1CC[C@@]2(O)C3=CC(=O)C4C[C@@H](O)[C@@H](O)CC4(C)C3=CCC12C (stereo partly drawn) [compound 22, dacryhainansterone, 22-methyl ether]
- EC50 [5, 11]: 1e-07 M
- RMFI (relative maximum fold induction, relative to diacylhydrazine 30) [2, 12]: ~0.3

SMILES: CCC1(O[C@H](CCC(C)(C)O)[C@](C)(O)C2CC[C@@]3(O)C4=CC(=O)C5C[C@@H](O)[C@@H](O)CC5(C)C4CCC23C)CO1 (stereo partly drawn) [compound 23, 20-hydroxyecdysone, 22-(28R,S)-2′-ethyloxiranyl ether]
- EC50 [5, 11]: 2.2e-05 M

SMILES: CCc1c(OC)cccc1C(=O)NN(C(=O)c1cc(C)cc(C)c1)C(C)(C)C [diacylhydrazine 30]
- potency as activator of AaEcR ([1]; Example Two): single digit nM
- diacylhydrazine reference FI (Bombyx mori EcR (BmEcR)): 1776
- logD [6]: 3.4
- solubility ([7]; 25 °C, thermodynamic from solid): 6.2 µg/mL (≈ 16.2 µM)
- fold induction at 1 µM ([2]; NIH3T3, 48 h, read-out: reference FI (1 microM)): 806
- EC50 [8]: 6000 nM
- EC50 ([9]; read-out: potency (EC50), lepidopteran receptors): 3 to 20 nM

SMILES: C=C(C)CC[C@@H](O)[C@](C)(O)[C@H]1CC[C@@]2(O)C3=CC(=O)[C@@H]4C[C@@H](O)[C@@H](O)C[C@]4(C)[C@H]3CC[C@]12C [isostachysterone C, 25,26-didehydroponasterone A]
- activity across the tested set of EcRs [9]: active

SMILES: CC(C)CC[C@@H](O)[C@](C)(O)[C@H]1CC[C@@]2(O)C3=CC(=O)[C@]4(O)C[C@@H](O)[C@@H](O)C[C@]4(C)[C@H]3[C@H](O)C[C@]12C [muristerone A]
- EC50 (VgEcR/RXR; VgEcR/RXR switch in 3T3 cells): 851 nM
- EC50 (VgEcR/RXR; VgEcR/RXR system): 851 nM
- RMFI (VgEcR/RXR; VgEcR/RXR system): 1.3
- EC50 ([1]; AaEcR gene switch, NIH3T3, Example One): 0.009 µM
- Experimental aqueous solubility ([7]; 25° C.): > 2900 µg/mL
- EC50 [2, 12]: 7400 nM
- activity across the tested set of EcRs [9]: active
